Results as given in US8552013B2, “Heterocyclic compounds based on N6-substituted adenine, methods of their preparation, their use for preparation of drugs, cosmetic preparations and growth regulators, pharmaceutical preparations, cosmetic preparations and growth regulators containing these compounds” (USTAV Experimentalni Botaniky Akademie Ved Ceske Republiky, priority 2001, dated 2013).

Key:
[1] = system: Rosa hybrida 'Pailin' explants; assay: Early shoot senescence of tissue cultured roses; assay type: in vivo; conditions: for relative number of dead plants in relation to culture time: 10 μM in medium
Description: Rosa hybrida ‘Pailin’ (a cut rose) was cultured in 350 ml vessels with a screw on polycarbonate lid. Each culture vessel contained 100 ml autoclaved medium (120° C., 20 min). The cultures were maintained at 23±2° C. under a 16 h photoperiod at 40 μM m^−2 s^−1 PAR. The basal medium (BMR) contained Murashige and Skoog (1962) macroelements, microelements and vitamins, 36.7 mg/l NaFeEDTA, 50 mg/l NaFeEDDHA, 100 mg/l […] myo-inositol, 30 g/l sucrose, 100 mg/l glycine, 50 mg/l calcium pantothenate, 100 mg/l L-glutamine and 7 g/l agar-agar. This medium was supplemented with 10 μM BA, mT and mMeOBAP. The last 2 cytokinins were filter sterilised and added after autoclaving the medium in the vessels. The control medium didn't contain any cytokinin. After a culture period of 6 weeks, scoring senescence symptoms was started.

[2] = system: Rosa hybrida (pot rose cultivar) explants; assay: In vitro and post vitro shoot multiplication and rooting of rose; assay type: in vivo; conditions: for Root number per plant / Total root length per plant: Ex vitro, four weeks of acclimatising; for Flower number per explant / Number of new shoots per explant / Root number per explant / Total root length per explant: In vitro, 10 μM, 8 weeks
Description: The aim of this experiment was to test whether the new compounds are of practical use in tissue culture practice. The multiplication rate was investigated and the post vitro effects on rooting were examined. Rosa hybrida (pot rose cultivar) was cultured in 350 ml vessels with a screw on polycarbonate lid. Each culture vessel contained 100 ml autoclaved medium (120° C., 20 min). The cultures were maintained at 23±2° C. under a 16 h photoperiod at 40 μM m^−2 s^−1 PAR. The basal medium (BMR) contained Murashige and Skoog (1962) macroelements, microelements and vitamins, 95 μM NaFeEDTA, 555 μM myo-inositol, 111 mM sucrose, 1.332 mM glycine, 684 μM L-glutamine and 7 g/l agar. This medium was supplemented with 10 μM BA, mT, oMeOBAP or mMeOBAP (compound no. 14 and 15, respectively). The control medium didn't contain any cytokinin. After a culture period of 8 weeks, the number of induced shoots per explant was determined, as well as root number/explant and total root length/explant. The roots were removed and the explants (shoot clusters) were planted in unfertilised peat. After four weeks of acclimatising in a fog unit, root number and root length was determined.

human skin fibroblasts [3] = assay: Series of experiments on short-term effects on human skin fibroblasts, conclusion; assay type: cell-based; conditions: para at a dose of 40 μM
Description: (§1) All experiments were performed on early and mid passage cultures (about 20 to 40% lifespan completed) of normal human adult skin fibroblast line; designated ASF-2 & Senetek cell line (about 10-90% lifespan completed); designated as SF20. In order to check the effects of test compounds on senescent cells, late passage cells with more than 95% lifespan completed were used. ASF-2 and SF20 cell lines were established from a mammary skin biopsy obtained from a young, non-smoking and healthy […] at the time of breast reduction operation. Normal culture conditions of medium (DMEM) containing antibiotics, 10% foetal calf serum, and incubation at 37° C. with 95% humidity were used. The effects of the test chemicals were determined in the following conditions:
The experiments were performed to determine the effects of short-term treatment of ortho-topolin, meta-topolin, and para-topolin on cell attachment, survival, growth, apoptosis, actin cytoskeletal pattern, lysosomal activity, proteasomal activity and morphology of human skin fibroblasts in culture.

human skin fibroblasts [4] = assay: Cell attachment of human skin fibroblasts; assay type: cell-based; conditions: for attachment / Percent of cells attached, effect in words: ortho 40 to 400 μM, meta 40 to 200 μM; for Percent of cells attached, effect in words: para 40 μM to 1 mM; for Overall cell attachment improved (summary): para at 40, 80, 100, 160, 250 and 500 μM
Description: as §1, with “conditions: […]” for “conditions:”

[5] = system: lysosomes of fibroblast cells; assay: Lysosomal activity, neutral red uptake; assay type: cell-based, human; conditions: pre-treated fibroblasts
Description: Neutral Red is preferentially taken up into the lysosomes of the cell. Fibroblast cells are maintained in culture and exposed to test compounds over a range of concentrations. The cultures are visually examined after 72 hours, and the number of viable cells and/or the total cell protein content determined, after 72 hours exposure, by the Neutral Red Uptake method. Advantage of Neutral Red assay is that it detects only viable cells. Any chemical having a localized effect upon the lysosomes will, therefore, result in an artificially low (or possibly high) reflection of cell viability and cell number. This factor does, however, make the system useful to detect those compounds which selectively affect the lysosomes, especially when it is used in conjunction with other tests capable of determining cell number.
The NR assay has been applied to evaluation and ranking the cytotoxicity of a spectrum of compounds. Individual wells of a 96-well tissue culture microtiter plate were inoculated with 0.2 ml of the appropriate media containing cells (usually 3×10^3 cells). After 1 to 2 days of incubation, the media were removed and replaced with unamended (control) medium or with medium amended with varied concentrations of the compound to be tested. After 3 days of exposure to the compound, media were removed and replaced with media containing 0.001% NR. The assay plate was then returned to the incubator for another 3 h to allow for uptake of the supravital dye into the lysosomes of viable cells. Thereafter, the media were removed and the cells were rapidly washed with 0.5% formaldehyde-1% CaCl2 followed by 0.2 ml of a solution of 1% acetic acid-50% ethanol to extract the dye from the cells. After 10 min at room temperature and a brief but rapid agitation on a microtiter plate shaker, the plates were transferred to a microplate spectrophotometer equipped with a 540-nm filter to measure the absorbance of the extracted dye.
The toxicities of the various compounds were compared with those of the control cultures by computing the data obtained.

proteasome = assay: Proteasomal chymotrypsin-like activity in cell extracts of treated cells; assay type: cell-based, human; conditions: 40, 80 and 200 μM
Description: Chymotrypsin-like activity in cell extracts prepared from treated and untreated cells was determined by in vitro degradation of oligopeptides by the proteasome.

[6] = system: senescent human skin fibroblasts; assay: Actin staining of senescent cells (FITC-Phalloidin); assay type: cell-based; conditions: after 3 days; meta 40 μM
Text: Actin staining: The pattern of cytoskeletal actin staining was studied by staining the cells with florescent ligand FITC-labelled Phalloidin, using a fluorescence microscope

Row | Compound | relative number of dead plants in relation to culture time [1] | plants alive ([1]; 10 μM, after 121 days) | Root number per plant [2] | Total root length per plant [2] [cm] | Flower number per explant [2] | Number of new shoots per explant [2] | Root number per explant [2] | Total root length per explant [2] [cm] | conclusion on short-term effects on human skin fibroblasts (human skin fibroblasts [3]) | reduction in cell attachment (human skin fibroblasts [4]; 400 μM, 6 hours) [%] | attachment (human skin fibroblasts [4]; 6 hours) | Percent of cells attached, effect in words (human skin fibroblasts [4]; 6 hours) | Overall cell attachment improved (summary) (human skin fibroblasts [4]) | Cleaning up of cytoplasmic debris (macro-molecular turn-over rate), summary [5] | proteasomal activity (chymotrypsin-like), removal of oxidized and abnormal proteins (proteasome) | actin staining pattern in senescent cells [6]
1 | COc1cccc(CNc2ncnc3nc[nH]c23)c1 [6-(3-methoxybenzylamino)purine] | the situation improved | almost all plants were still alive | 1.7 | 4.1 | 0.03 | 4.3 | 0.0 | 0.0 | – | – | – | – | – | – | – | –
2 | Oc1cccc(CNc2ncnc3nc[nH]c23)c1 [meta-topolin, 6-(3-hydroxybenzylamino)purine] | the situation improved | – | 1.4 | 3.8 | 0.16 | 2.1 | 0.0 | 0.0 | little or no beneficial effects | 20 | about 80% | not affected to any significant extent | No improvements | No such effective removal was observed | failed to show such an effect | depolymerised actin filaments to some extent
3 | Oc1ccccc1CNc1ncnc2nc[nH]c12 [ortho-topolin, 6-(2-hydroxybenzylamino)purine] | – | – | – | – | – | – | – | – | little or no beneficial effects | – | 80 to 90% | not affected to any significant extent | No improvements | No such effective removal was observed | failed to show such an effect | no obvious differences
